Data taken from patent US12344626B2, “Pharmaceutical compounds and therapeutic methods” (RUTGERS, THE STATE UNIVERSITY OF NEW JERSEY, priority 2019, dated 2025).
“Also recorded” adds a separate entry of the source.

Tests used:
[1] = Solubility of zinc complexes; assay type: physicochemical
[2] = target: T1, mutant p53 (Homo sapiens, UniProt P04637, R175H); assay: Cell growth inhibition after mutant p53 knock-down using siRNA; assay type: cell-based; conditions: mutant p53 knocked down using an siRNA
T1 construct: The p53-R175H cells (e.g. TOV112D) cultured in DMEM+10% FBS are treated with a test compound; endogenous in cells; host or cells: p53-R175H cells (e.g. TOV112D)

[3] = target: T2, COX1(h) (Homo sapiens, UniProt P23219); assay: CEREP-44 Safety Screen: COX1; assay type: biochemical; design: dose or concentration left out as unconfirmed
T2 construct: Eurofins (Cerep) SafetyScreen44 panel, contract screen P270

[4] = target: T1, mutant p53; assay: Immunofluorescent staining with p53 conformation specific antibodies (PAB240, PAB1620); assay type: cell-based; conditions: PAB 1620 (wild type specific)
Method: An immunofluorescent staining using p53 conformation specific antibodies is used to determine if a test compound could induce the mutant p53 protein refolding to a wildtype conformation. The p53-R175H cells (e.g. TOV112D) cultured in DMEM+10% FBS are treated with a test compound for 6 hours, then fixed and stained with the antibodies PAB1620 (recognizing WT conformation) and PAB240 (recognizing misfolded/unfolded conformation) respectively.

[5] = target: T3, COX2(h) (Homo sapiens, UniProt P35354); assay: CEREP-44 Safety Screen: COX2; assay type: biochemical; design: dose or concentration left out as unconfirmed
T3 construct: Eurofins (Cerep) SafetyScreen44 panel, contract screen P270
T3 sequence (P35354 18-604): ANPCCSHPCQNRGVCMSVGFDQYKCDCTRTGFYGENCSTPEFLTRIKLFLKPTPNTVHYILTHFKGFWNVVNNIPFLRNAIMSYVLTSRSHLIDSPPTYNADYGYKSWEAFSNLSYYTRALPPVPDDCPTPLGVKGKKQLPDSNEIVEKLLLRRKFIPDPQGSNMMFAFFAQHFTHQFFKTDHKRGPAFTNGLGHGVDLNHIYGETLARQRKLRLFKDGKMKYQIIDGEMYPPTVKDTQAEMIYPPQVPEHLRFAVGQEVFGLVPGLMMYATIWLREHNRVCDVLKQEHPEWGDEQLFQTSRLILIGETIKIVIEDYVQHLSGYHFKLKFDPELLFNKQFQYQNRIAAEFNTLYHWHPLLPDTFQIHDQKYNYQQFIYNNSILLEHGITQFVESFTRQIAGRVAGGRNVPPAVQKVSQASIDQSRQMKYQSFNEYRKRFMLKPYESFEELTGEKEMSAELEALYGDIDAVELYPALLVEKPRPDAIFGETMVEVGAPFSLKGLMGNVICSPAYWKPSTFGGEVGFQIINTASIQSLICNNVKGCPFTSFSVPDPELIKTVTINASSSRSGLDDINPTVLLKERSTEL

[6] = test system: human tumor cell lines; assay: Cell growth inhibition assay (Calcein AM); assay type: cell-based; conditions: for EC50: Calcein AM, incubation for 3 days; for Fold (Zn-1/compound) / Fold (compound/Zn-1): ratio of EC50s
Method: (§1) Cell growth inhibition assay using human tumor cell lines with different p53 status (wildtype, null, p53-R175H or other zinc binding deficient mutants) are employed to determine if a test compound functions as a zinc metallochaperone to restore wildtype p53 functions. Five thousand cells per well are cultured in 96-well plate to reach the 50% confluence on the second day when treated with serial dilutions of the compounds. Growth is measured by Calcein AM assay after incubation for 72 hours.
The cell growth inhibition assay was performed by Calcein AM assay (Trevigen). Five thousand cells per well were cultured in 96-well plate to reach the 50% confluence on the second day when treated with serial dilutions of the compounds. Growth was measured by Calcein AM assay (Trevigen) and Victor Plate reader instrument (PerkinElmer) after incubation for 3 days.

[7] = target: T4, 5-HT2B (Homo sapiens, UniProt P41595); assay: CEREP-44 Safety Screen: 5-HT2B; assay type: binding; design: dose or concentration left out as unconfirmed
T4 construct: Eurofins (Cerep) SafetyScreen44 panel, contract screen P270

[8] = test system: p53R175H cells; assay: Potency against p53R175H cells in vitro, compared with the monomer from Zn-1; assay type: cell-based
Method: as §1

[9] = test system: p53 target genes p21, PUMA and GDF15; assay: Quantitative PCR of p53 target genes (restoration of wild type transcriptional function); assay type: cell-based; conditions: for p21, PUMA and GDF15 levels: quantitative PCR

T2 sequence (P23219 24-599): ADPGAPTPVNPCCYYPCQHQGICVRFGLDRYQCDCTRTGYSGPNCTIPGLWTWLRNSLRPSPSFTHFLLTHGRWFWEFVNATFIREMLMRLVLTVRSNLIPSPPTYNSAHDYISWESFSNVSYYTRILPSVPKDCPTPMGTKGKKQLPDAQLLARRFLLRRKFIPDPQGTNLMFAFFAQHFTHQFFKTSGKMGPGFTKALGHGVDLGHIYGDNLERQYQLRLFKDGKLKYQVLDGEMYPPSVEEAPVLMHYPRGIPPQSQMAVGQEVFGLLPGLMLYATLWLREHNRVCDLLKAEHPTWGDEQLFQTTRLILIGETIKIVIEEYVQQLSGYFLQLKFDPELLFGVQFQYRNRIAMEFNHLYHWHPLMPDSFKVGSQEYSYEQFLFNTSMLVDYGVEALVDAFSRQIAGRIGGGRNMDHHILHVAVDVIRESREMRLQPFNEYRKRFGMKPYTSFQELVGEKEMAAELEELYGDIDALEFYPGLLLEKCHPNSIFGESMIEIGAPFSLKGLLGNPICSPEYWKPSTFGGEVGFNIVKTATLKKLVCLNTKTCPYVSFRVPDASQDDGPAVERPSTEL
T4 sequence (P41595 whole entry): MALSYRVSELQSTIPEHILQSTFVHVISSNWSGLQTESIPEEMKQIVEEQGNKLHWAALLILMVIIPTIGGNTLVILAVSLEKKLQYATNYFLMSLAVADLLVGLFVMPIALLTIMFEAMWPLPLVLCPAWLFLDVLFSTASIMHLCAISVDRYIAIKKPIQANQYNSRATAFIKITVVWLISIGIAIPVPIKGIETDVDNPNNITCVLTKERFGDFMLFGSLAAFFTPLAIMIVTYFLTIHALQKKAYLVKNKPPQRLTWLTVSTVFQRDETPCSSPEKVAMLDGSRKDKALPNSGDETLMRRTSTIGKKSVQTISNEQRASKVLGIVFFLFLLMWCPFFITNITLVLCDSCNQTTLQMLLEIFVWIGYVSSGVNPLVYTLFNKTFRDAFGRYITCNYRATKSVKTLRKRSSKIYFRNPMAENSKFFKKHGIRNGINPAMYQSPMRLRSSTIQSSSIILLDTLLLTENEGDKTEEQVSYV

| Compound | Solubility DMSO 4 mg/ml [1] | Solubility DMSO 10 mg/ml [1] | Solubility EtOH 1 mg/ml [1] | Solubility EtOH 2 mg/ml [1] | Solubility H2O:DMSO 1:1 0.5 mg/mL [1] | EC50 [6] [nM] | Fold (Zn-1/compound) [6] | Fold (compound/Zn-1) [6] | More potent than the monomer from Zn-1 [8] [fold] | further results |
| --- | --- | --- | --- | --- | --- | --- | --- | --- | --- | --- |
| Zn[(E)-2-(1-(4-(2-methoxyethoxy)pyridin-2-yl)ethylidene)-N,N-dimethylhydrazine-1-carbothioamide]2 [ZN-8] | Yes | Yes | YES | Partial | No | 0.37 | 7.3 | 0.1 | 14 | Cell growth inhibition after mutant p53 knock-down [2]: attenuated by more than a log fold; COX1(h) % Inh. [3]: 54.8 % Inh.; Wild type conformation change of mutant p53 [4]: induces a wild type conformation change; COX2(h) % Inh. [5]: 50.7 % Inh.; 5-HT2B % Inh. [7]: 58.7 % Inh.; p21, PUMA and GDF15 levels [9]: markedly induced; Increases of p21, PUMA and GDF15 in p53R175H knock-out cells ([9]; same cell line with mutant p53R175H knocked out using CRISPR): not observed |
| C/C(=N\NC(=S)N1CCC1)c1ccccn1 [ZN-1, reference compound] | Yes | No | No | No | No | – | – | – | 3 | EC50 ([6]; Homo sapiens, 72 h): 2.69 nM; p21, PUMA and GDF15 levels [9]: markedly induced |
| Zn[(E)-N,N-dimethyl-2-(1-(4-(2-morpholinoethoxy)pyridin-2-yl)ethylidene)hydrazine-1-carbothioamide]2 bis mesylate salt [ZN-9 Mesylate salt] | – | – | – | – | – | – | – | – | – | Solubility 0.9% Saline ([1]; 0.9% Saline): 5000 to 10000 µg/mL |
| COc1ccnc(/C(C)=N/NC(=S)N(C)C)c1.COc1ccnc(/C(C)=N/NC(=S)N(C)C)c1.[Zn] [Zn-11, Zn[(E)-2-(1-(4-methoxypyridin-2-yl)ethylidene)-N,N-dimethylhydrazine-1-carbothioamide]2] | Yes | Yes | Partial | – | No at 0.5 | 0.22 | 12.2 | 0.1 | 209 | Qualitative relative solubility in 1:1 DMSO:water ([1]; H2O:DMSO 1:1 at 0.5 mg/mL, compared among Zn-8, Zn-11 and Zn-14): qualitatively more soluble; also recorded: *Qualitatively slightly more soluble compared with Zn-8 and Zn-14 |
| C/C(=N\NC(=S)N1CCC1)c1ccccn1 [ZMC-1, reference compound] | – | – | – | – | – | – | – | – | – | Solubility DMSO (3 mg/ml) ([1]; DMSO 4 mg/ml column, cell annotated (3 mg/ml)): Yes |
| Zn[(E)-N,N-dimethyl-2-(1-(4-(2-morpholinoethoxy)pyridin-2-yl)ethylidene)hydrazine-1-carbothioamide]2 [ZN-9] | – | Yes | – | Yes | – | 18.1 | 0.1 | 6.7 | – | – |
| C/C(=N\NC(=S)N(C)C)c1ccc(O[C@H]2CCOC2)cn1.C/C(=N\NC(=S)N(C)C)c1ccc(O[C@H]2CCOC2)cn1.[Zn] [Zn-15, Zn[(S,E)-N,N-dimethyl-2-(1-(5-((tetrahydrofuran-3-yl)oxy)pyridin-2-yl)ethylidene)hydrazine-1-carbothioamide]2] | – | – | – | – | – | 7.08 | 2.6 | 0.4 | – | – |
